From PMC9146934 (Membranes, 2022)
Values joined by “and” are separate entries in the source; they are usually repeats but may differ in a detail not shown here. Equal entries are not always repeated. Where two headings read alike, the source gives them in different places.

Tests used:
[1] = target: T1, Hs-α4β2γ2 GABA-A receptor (Homo sapiens, UniProt P18507+P47870+P48169); experiment: Two-electrode voltage-clamp of GABA-induced currents, Hs-α4β2γ2 expressed in Xenopus laevis oocytes; assay type: cell-based
T1 construct: expressed in transfected cells; host or cells: Xenopus laevis oocytes (cRNA injection; α4 in pcDNA3.1(+))
Procedure: (§1) cRNAs were in vitro synthesized from linearized plasmids using the M-message M-machine transcription kit (Thermo Fisher, Waltham, MA USA) following the manufacturer’s instructions. The cRNA concentration was adjusted to 1 µg/µL. Preparation and injection of X. laevis oocytes were completed as previously described. The oocytes were injected with 30 nL of a solution containing the cRNA of interest. Injected oocytes were maintained at 19 °C in a survival solution containing (in mM): NaCl, 96; KCl, 2; CaCl2, 1.8; MgCl2, 1; Hepes, 5; Na-pyruvate, 2.5; and gentamycin, 0.025, pH = 7.2 with NaOH, renewed daily.
(§2) Expressed currents were recorded at room temperature using the two-electrode voltage-clamp method 1–3 days after injection. Electrodes were pulled from borosilicate glass (Warner, ref GC150T10) and filled with 3 M KCl. […] Drugs were applied using a gravity-driven perfusion system at a speed of 2 mL/min.
(§3) Oocytes were perfused with the following ND solution (in mM): NaCl, 96; KCl, 3; CaCl2, 0.5; MgCl2, 1; HEPES, 5, with pH set at 7.4 with NaOH at ~1 mL/min. The reversal potential of the Ap-RDL receptor was measured in solutions containing (in mM): NaCl, Na-acetate or TEACl (tetraethylammonium chloride), 100; HEPES, 5 with pH set at 7.4, with NaOH or TEAOH. […] Fipronil or picrotoxin were dissolved at the final concentrations from stock solutions in DMSO (dimethylsulfoxide) at 200 and 10 mM, respectively. The final DMSO concentration was always less than 0.2%.
(§4) With Rel.Cur. the current amplitude at each concentration relative to the current recorded in the absence of antagonist; IC50, the concentration for half-maximum inhibition, log ([Inhib]) the logarithm of the inhibitor concentration, and p a slope factor.
With t, the time of the recording; Rel.Cur., the current amplitude at each concentration relative to the current recorded in the absence of antagonist; Amp, the amplitude of the exponential, Tau Block, the time constant of the exponential, and R the residual non-inhibited current at the steady-state of the effects. […]

[2] = target: T2, Vd-RDL1 GABAr (Varroa destructor, UniProt A0A343W7T5); experiment: Two-electrode voltage-clamp of GABA-induced currents, Vd-RDL1 expressed in Xenopus laevis oocytes; assay type: cell-based
T2 sequence (A0A343W7T5 35-585): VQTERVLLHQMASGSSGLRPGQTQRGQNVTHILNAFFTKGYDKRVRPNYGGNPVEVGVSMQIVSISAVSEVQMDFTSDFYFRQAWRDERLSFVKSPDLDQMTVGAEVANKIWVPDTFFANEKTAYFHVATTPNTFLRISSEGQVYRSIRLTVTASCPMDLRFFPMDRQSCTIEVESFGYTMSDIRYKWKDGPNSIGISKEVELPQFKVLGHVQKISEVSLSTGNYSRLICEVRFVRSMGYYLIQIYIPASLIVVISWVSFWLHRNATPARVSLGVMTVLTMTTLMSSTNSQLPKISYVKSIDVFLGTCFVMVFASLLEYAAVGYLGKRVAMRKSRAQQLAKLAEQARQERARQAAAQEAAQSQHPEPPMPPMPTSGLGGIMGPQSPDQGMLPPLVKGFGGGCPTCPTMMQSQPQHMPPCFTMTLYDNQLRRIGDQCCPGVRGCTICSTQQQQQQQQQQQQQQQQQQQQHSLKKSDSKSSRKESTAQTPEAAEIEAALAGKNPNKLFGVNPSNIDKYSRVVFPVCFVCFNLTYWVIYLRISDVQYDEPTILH
Procedure: as §1, §2, §3, §4
(§5) With t, the time of the recording; Rel.Cur., the current amplitude at each concentration relative to the current recorded in the absence of antagonist; Amp, the amplitude of the exponential, Tau Block, the time constant of the exponential, and R the residual non-inhibited current at the steady-state of the effects. The relative block (Rel.B) is estimated as 1-R expressed in %.

[3] = target: T3, Ap-RDL1 GABAr (Acyrthosiphon pisum, UniProt A0A385J708, C18R); experiment: Two-electrode voltage-clamp of GABA-induced currents, Ap-RDL1 expressed in Xenopus laevis oocytes; assay type: cell-based
T3 sequence (A0A385J708 33-567 C18R): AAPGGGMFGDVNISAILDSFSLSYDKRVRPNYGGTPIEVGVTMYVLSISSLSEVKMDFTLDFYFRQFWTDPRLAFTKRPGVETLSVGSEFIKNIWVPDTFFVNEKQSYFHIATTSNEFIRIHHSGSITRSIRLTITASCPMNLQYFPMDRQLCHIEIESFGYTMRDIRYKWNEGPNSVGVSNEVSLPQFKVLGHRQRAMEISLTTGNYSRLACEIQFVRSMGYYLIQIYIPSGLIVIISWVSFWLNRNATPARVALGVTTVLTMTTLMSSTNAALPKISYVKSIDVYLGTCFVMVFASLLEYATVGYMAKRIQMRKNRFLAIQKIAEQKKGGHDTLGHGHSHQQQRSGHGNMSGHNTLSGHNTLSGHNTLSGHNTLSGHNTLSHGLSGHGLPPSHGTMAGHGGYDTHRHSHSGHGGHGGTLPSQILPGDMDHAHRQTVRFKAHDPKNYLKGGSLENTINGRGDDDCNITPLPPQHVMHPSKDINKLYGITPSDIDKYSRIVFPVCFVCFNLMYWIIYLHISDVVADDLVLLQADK
Procedure: as §1, §2, §3, §4, §5

[4] = target: T4, Vd-RDL2 GABAr (Varroa destructor, UniProt A0A3G3MDS2); experiment: Two-electrode voltage-clamp of GABA-induced currents, Vd-RDL2 expressed in Xenopus laevis oocytes; assay type: cell-based
T4 sequence (A0A3G3MDS2 20-661): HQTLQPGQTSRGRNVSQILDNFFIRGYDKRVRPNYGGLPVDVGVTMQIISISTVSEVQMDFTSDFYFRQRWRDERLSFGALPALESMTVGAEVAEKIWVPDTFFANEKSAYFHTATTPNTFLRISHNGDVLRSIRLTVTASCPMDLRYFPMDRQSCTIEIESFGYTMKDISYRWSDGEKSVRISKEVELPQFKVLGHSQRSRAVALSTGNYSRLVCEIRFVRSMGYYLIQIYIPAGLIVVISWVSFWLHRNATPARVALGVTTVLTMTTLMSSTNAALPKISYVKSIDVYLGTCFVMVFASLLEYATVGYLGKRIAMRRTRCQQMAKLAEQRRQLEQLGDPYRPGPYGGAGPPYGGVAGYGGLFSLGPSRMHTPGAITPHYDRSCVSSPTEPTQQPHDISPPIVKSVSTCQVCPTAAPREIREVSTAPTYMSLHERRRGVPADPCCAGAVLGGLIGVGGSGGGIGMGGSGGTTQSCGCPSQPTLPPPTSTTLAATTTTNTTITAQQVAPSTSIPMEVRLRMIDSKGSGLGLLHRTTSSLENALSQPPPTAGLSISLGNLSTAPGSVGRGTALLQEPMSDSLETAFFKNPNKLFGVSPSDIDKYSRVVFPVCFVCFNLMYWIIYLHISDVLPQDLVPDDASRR
Procedure: as §1, §2, §3, §4, §5

[5] = target: T5, Vd-RDL3 GABAr (Varroa destructor, UniProt A0A343W7T7); experiment: Two-electrode voltage-clamp of GABA-induced currents, Vd-RDL3 expressed in Xenopus laevis oocytes; assay type: cell-based
T5 sequence (A0A343W7T7 31-591): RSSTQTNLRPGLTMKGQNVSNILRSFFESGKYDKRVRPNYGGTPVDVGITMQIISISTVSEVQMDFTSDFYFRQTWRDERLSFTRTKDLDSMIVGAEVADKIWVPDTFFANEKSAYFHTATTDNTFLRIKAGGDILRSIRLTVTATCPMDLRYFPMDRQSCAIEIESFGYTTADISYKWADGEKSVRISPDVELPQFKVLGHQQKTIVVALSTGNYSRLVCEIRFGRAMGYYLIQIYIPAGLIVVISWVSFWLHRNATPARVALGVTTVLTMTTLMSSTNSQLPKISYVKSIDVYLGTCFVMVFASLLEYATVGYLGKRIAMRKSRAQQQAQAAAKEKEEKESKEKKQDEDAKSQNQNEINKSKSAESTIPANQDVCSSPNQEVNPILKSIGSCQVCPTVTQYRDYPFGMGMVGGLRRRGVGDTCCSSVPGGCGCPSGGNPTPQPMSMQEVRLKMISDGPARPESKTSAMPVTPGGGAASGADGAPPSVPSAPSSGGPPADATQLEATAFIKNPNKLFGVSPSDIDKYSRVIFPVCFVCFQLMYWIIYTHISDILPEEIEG
Procedure: as §1, §2, §3, §4, §5

[6] = target: T6, Hs-α2β2γ2 GABA-A receptor (Homo sapiens, UniProt P18507+P47869+P47870); experiment: cell-based; assay type: cell-based
T6 construct: expressed in transfected cells; host or cells: Xenopus laevis oocytes (cRNA injection)
Procedure: as §1, §2, §3, §4, §5

[7] = target: T7, Am-RDL GABAr (Apis mellifera, UniProt A0A8U0Y4W2); experiment: Two-electrode voltage-clamp of GABA-induced currents, Am-RDL expressed in Xenopus laevis oocytes; assay type: cell-based
T7 sequence (A0A8U0Y4W2 19-476): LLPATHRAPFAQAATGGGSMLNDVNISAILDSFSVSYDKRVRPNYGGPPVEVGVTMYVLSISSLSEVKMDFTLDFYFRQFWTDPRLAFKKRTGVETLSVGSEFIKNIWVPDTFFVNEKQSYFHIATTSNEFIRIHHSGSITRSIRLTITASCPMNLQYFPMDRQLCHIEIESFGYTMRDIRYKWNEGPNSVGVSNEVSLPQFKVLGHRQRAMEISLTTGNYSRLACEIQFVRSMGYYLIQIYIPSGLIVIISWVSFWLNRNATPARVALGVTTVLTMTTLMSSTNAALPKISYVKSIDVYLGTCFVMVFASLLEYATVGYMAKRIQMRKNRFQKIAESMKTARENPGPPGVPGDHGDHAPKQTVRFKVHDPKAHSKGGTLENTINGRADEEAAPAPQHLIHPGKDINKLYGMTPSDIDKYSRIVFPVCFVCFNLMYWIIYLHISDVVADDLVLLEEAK
Procedure: as §1, §2, §3, §4, §5

[8] = test system: A. pisum RDL1ad; conditions: read-out: IC50 for fipronil; cited from earlier work
[9] = test system: A. pisum RDL2b; conditions: text prints the receptor as Ap-RDL2; read-out: IC50 for fipronil; cited from earlier work
[10] = test system: Hs-α1β2γ2; conditions: read-out: IC50 for fipronil; cited from earlier work
[11] = test system: A. pisum RDL1bd; conditions: text prints the receptor as Ap-RDL1; read-out: IC50 for fipronil; cited from earlier work
[12] = peak current, oocytes clamped at −60 mV
[13] = dieldrin 1 µM, GABA 100 µM, mono-exponential fit
[14] = IC50 (inhibition of the GABA response), GABA 100 µM, inhibitor co-applied

T6 sequence (P47869 29-451): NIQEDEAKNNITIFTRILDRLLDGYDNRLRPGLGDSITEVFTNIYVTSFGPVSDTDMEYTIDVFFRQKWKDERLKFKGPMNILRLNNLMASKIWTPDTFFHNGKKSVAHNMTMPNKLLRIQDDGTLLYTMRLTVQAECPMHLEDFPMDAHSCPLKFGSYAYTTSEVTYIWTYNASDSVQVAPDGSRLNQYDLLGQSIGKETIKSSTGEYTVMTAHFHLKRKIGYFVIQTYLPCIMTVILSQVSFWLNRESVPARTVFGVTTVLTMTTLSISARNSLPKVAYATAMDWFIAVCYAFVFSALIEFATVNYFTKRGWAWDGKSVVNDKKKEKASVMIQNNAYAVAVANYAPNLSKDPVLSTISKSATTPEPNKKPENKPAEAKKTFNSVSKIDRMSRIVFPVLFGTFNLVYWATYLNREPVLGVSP
T6 sequence (P47870 25-512 limits assumed): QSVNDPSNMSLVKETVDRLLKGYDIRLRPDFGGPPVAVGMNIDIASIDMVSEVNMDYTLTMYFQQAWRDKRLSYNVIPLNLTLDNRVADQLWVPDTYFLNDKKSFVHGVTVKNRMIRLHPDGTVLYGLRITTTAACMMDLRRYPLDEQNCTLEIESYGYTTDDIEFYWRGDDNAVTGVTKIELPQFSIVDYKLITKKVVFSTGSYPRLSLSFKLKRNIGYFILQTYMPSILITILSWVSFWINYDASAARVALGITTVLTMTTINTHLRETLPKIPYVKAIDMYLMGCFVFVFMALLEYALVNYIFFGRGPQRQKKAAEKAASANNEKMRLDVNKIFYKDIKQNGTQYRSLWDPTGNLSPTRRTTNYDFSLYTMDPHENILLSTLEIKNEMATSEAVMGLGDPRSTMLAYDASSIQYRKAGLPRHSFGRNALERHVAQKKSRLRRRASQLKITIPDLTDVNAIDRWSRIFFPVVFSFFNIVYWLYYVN
T6 sequence (P18507 40-475): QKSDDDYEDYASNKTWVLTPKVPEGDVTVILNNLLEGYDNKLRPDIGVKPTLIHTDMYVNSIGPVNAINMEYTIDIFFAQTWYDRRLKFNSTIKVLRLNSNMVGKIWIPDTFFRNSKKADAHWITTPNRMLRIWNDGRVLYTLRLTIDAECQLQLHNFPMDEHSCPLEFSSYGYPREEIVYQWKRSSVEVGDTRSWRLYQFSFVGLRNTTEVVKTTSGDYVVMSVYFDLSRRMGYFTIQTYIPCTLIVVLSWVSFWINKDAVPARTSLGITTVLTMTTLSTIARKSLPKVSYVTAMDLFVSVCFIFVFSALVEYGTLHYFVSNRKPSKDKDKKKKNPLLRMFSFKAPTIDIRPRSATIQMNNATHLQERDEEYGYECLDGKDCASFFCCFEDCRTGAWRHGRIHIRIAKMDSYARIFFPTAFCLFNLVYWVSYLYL
T1 sequence (P48169 36-554): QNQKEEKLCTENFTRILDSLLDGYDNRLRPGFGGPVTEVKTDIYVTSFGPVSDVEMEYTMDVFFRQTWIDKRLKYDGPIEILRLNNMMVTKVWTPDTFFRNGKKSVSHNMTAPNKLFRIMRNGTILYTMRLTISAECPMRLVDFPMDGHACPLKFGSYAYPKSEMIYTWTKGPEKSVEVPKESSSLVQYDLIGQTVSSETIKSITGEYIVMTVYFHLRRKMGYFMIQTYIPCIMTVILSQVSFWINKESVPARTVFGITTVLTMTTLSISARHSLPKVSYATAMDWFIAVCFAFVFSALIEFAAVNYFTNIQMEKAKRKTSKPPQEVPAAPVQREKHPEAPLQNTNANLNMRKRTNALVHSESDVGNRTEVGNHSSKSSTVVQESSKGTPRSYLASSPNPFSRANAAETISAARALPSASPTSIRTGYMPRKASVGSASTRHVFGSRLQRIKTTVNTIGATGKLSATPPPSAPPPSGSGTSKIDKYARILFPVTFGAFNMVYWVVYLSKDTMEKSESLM
T1 sequence (P47870 25-512 limits assumed): as the sequence (P47870 25-512 limits assumed) above
T1 sequence (P18507 40-475): as the sequence (P18507 40-475) above

Compound: NCCCC(=O)O [GABA, γ-aminobutyric acid]
- p (slope factor) of GABA dose–response curve ([1]; logistic fit): 1.4 ± 0.2
- p (slope factor) of GABA dose–response curve ([2]; logistic fit): 2.3 ± 0.2
- EC50 [2, 12]: 269 ± 41 µM
- p (slope factor) of GABA dose–response curve ([3]; logistic fit): 2.4 ± 0.3
- p (slope factor) of GABA dose–response curve ([4]; logistic fit): 1.8 ± 0.2
- p (slope factor) of GABA dose–response curve ([5]; logistic fit): 2.3 ± 0.1
- EC50 [5, 12]: 43.1 ± 10.4 µM
- p (slope factor) of GABA dose–response curve [6]: 1.4 ± 0.1
- EC50 [7]: 19.3 ± 3.5 µM
- p (slope factor) of GABA dose–response curve ([7]; logistic fit): 2.1 ± 0.2

Compound: ClC1=C(Cl)[C@]2(Cl)[C@@H]3[C@@H]4C[C@@H]([C@H]5O[C@@H]45)[C@@H]3[C@@]1(Cl)C2(Cl)Cl [dieldrin]
- Rel.B (steady-state relative block) ([1]; dieldrin 1 µM, GABA 100 µM): 80–91%
- Tau-Block (time constant of block) [1, 13]: 2 to 6 min
- Rel.B (steady-state block) ([2]; dieldrin 1 µM, GABA 300 µM): ~20%
- Tau-Block (time constant of block) ([2]; dieldrin 1 µM, GABA 300 µM, hard to evaluate, fitted): around 55 min
- time to reach steady-state inhibition during successive pulses at the same dose ([3]; Figure 6B, dieldrin 1 µM, GABA 50 µM): more than 10 min
- Tau-Block (time constant of block) ([3]; dieldrin 1 µM, repetitive GABA application, mono-exponential fit): 2 to 6 min
- Rel.B (steady-state relative block) ([4]; dieldrin 1 µM, GABA 100 µM): 51 ± 1%
- Tau-Block (time constant of block) [4, 13]: 2 to 6 min
- Rel.B (steady-state relative block) ([5]; dieldrin 1 µM, GABA 100 µM): 80–91%
- Tau-Block (time constant of block) [5, 13]: 2 to 6 min
- Rel.B (steady-state relative block) ([6]; dieldrin 1 µM, GABA 300 µM): 80–91%
- Tau-Block (time constant of block) ([6]; dieldrin 1 µM, GABA 300 µM, mono-exponential fit): 2 to 6 min
- Rel.B (steady-state relative block) ([7]; dieldrin 1 µM, GABA 100 µM): 80–91%
- Tau-Block (time constant of block) [7, 13]: 2 to 6 min

Compound: N#Cc1nn(-c2c(Cl)cc(C(F)(F)F)cc2Cl)c(N)c1[S+]([O-])C(F)(F)F (centres unmarked) [fipronil]
- IC50 [8]: 0.64 ± 0.15 µM
- IC50 [2]: > 500 µM
- block of GABA response by fipronil ([2]; fipronil 30 µM, GABA 100 µM): almost no block
- IC50 [9]: 0.72 ± 0.2 µM
- IC50 [3, 14]: 0.31 µM and 0.3 to 3 µM
- IC50 [4, 14]: 0.77 µM and 0.3 to 3 µM
- IC50 [10]: 1.1 ± 0.2 µM
- IC50 [5]: 3.64 ± 1.74 µM
- IC50 [6, 14]: 1.88 µM and 0.3 to 3 µM and 1.8 µM
- IC50 [11]: 0.18 ± 0.1 µM
- IC50 [7]: 0.07 ± 0.2 µM

Compound: picrotoxin
- sensitivity to picrotoxin ([2]; GABA 100 µM): insensitive
- block of GABA response by picrotoxin ([2]; picrotoxin 100 µM, GABA 100 µM): 20%
- IC50 ([2]; read-out: IC50 (inhibition of the GABA response), GABA 100 µM, inhibitor co-applied): > 500 µM
